Laboratory results reported in patent publication US7998987B2, “Inhibitors of c-Met and uses thereof” (Vertex Pharmaceuticals Incorporated, priority 2005, dated 2011).
pKi: −log10 of the molar value.

Molecular target: c-Met (Homo sapiens, UniProt P08581)
Test: Ki determination for the inhibition of c-Met kinase activity (standard coupled enzyme system)
Type: biochemical
Details: coupled enzyme system, 200 μM ATP, 80 nM c-Met, 30° C.; read-out: c-Met Ki
How it was run: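 The kinase (80 nM) turned over polyGluTyr (10 μM) with ATP (200 μM, added to start), coupled to NADH oxidation via pyruvate kinase/lactate dehydrogenase at pH 7.5 HEPES, 1.5% DMSO.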

Sequence of c-Met (P08581 25-1390): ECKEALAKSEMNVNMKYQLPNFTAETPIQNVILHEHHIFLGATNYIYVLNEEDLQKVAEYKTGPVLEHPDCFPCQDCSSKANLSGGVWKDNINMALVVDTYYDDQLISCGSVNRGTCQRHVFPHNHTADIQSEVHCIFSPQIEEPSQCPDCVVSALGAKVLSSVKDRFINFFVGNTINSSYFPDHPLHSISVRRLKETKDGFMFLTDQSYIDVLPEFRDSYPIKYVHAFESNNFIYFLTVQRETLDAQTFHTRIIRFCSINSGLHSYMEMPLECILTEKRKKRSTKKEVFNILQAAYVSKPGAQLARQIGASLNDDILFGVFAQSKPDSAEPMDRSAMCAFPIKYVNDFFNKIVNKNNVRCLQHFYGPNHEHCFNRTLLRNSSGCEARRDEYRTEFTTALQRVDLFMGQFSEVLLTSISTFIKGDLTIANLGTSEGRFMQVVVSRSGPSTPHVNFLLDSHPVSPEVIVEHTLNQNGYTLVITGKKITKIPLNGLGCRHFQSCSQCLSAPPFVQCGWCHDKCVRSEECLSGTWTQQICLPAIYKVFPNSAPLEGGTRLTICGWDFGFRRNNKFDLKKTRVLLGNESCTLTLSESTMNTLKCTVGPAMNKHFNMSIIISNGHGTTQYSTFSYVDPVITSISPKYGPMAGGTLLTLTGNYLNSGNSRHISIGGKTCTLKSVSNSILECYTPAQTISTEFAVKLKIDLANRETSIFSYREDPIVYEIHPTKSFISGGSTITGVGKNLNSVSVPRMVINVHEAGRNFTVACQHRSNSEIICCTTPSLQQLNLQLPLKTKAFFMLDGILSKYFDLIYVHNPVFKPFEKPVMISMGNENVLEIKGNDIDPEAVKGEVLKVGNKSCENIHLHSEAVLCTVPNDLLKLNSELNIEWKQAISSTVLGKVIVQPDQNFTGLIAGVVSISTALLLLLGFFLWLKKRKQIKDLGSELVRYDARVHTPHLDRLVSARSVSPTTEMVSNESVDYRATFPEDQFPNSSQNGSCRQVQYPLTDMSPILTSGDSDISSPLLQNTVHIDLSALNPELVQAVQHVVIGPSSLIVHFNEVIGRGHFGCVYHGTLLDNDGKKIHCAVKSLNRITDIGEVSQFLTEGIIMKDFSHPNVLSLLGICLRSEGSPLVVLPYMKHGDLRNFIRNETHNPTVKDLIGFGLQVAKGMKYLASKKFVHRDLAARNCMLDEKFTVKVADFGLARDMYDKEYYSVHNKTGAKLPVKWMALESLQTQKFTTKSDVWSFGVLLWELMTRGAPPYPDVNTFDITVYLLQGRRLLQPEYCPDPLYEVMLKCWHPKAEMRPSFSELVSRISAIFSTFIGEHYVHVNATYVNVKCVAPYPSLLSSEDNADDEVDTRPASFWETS

| SMILES | pKi |
| --- | --- |
| CS(=O)(=O)Nc1ccc(Cc2nnc3ccc(Nc4cccc(Cl)c4)nn23)cc1 [Compound 369] | < 5.70 |
| CC1CC(Nc2ccc3nnc(Cc4ccc(O)cc4)n3n2)CC(C)(C)C1 (stereo not drawn) [Compound 370] | > 7.00 |
| Clc1cccc(Nc2ccc3nnc(COc4cccnc4)n3n2)c1 [Compound 371] | 5.70 to 7.00 |
| Cc1ccc(OCc2nnc3ccc(Nc4cccc(Cl)c4)nn23)cn1 [Compound 372] | < 5.70 |
| Clc1cccc(Nc2ccc3nnc(COc4ccccn4)n3n2)c1 [Compound 373] | < 5.70 |
| Clc1cccc(Nc2ccc3nnc(COc4cccnc4Cl)n3n2)c1 [Compound 374] | 5.70 to 7.00 |
| Clc1cccc(Nc2ccc3nnc(COc4ccc(Cl)nc4)n3n2)c1 [Compound 375] | < 5.70 |
| Clc1cccc(Nc2ccc3nnc(COc4cccc(Cl)n4)n3n2)c1 [Compound 376] | < 5.70 |
| Fc1cccc(OCc2nnc3ccc(Nc4cccc(Cl)c4)nn23)c1 [Compound 377] | < 5.70 |
| Fc1ccc(OCc2nnc3ccc(Nc4cccc(Cl)c4)nn23)cc1F [Compound 378] | < 5.70 |
| N#Cc1ccc(OCc2nnc3ccc(Nc4cccc(Cl)c4)nn23)cc1 [Compound 379] | < 5.70 |
| Clc1ccc(OCc2nnc3ccc(Nc4cccc(Cl)c4)nn23)cc1 [Compound 380] | < 5.70 |
| N#CCc1ccc(OCc2nnc3ccc(Nc4cccc(Cl)c4)nn23)cc1 [Compound 382] | < 5.70 |
| C=CCc1ccccc1OCc1nnc2ccc(Nc3cccc(Cl)c3)nn12 [Compound 383] | < 5.70 |
| Clc1cccc(Nc2ccc3nnc(COc4cccc(Cl)c4)n3n2)c1 [Compound 384] | < 5.70 |
| CCOc1cccc(OCc2nnc3ccc(Nc4cccc(Cl)c4)nn23)c1 [Compound 385] | < 5.70 |
| Clc1cccc(Nc2ccc3nnc(CNc4ccncc4)n3n2)c1 [Compound 386] | < 5.70 |
| Clc1cccc(Nc2ccc3nnc(CSc4ccccc4)n3n2)c1 [Compound 387] | < 5.70 |
| Cc1cccc(SCc2nnc3ccc(Nc4cccc(Cl)c4)nn23)c1 [Compound 388] | < 5.70 |
| Clc1cccc(Nc2ccc3nnc(CSc4ccccc4Cl)n3n2)c1 [Compound 389] | < 5.70 |
| Fc1ccc(SCc2nnc3ccc(Nc4cccc(Cl)c4)nn23)cc1 [Compound 390] | < 5.70 |
| Oc1ccc(OCc2nnc3ccc(Nc4cccc(Cl)c4)nn23)cc1 [Compound 391] | 5.70 to 7.00 |

| SMILES | pKi |
| --- | --- |
| NC(=O)c1ccccc1OCc1nnc2ccc(Nc3cccc(Cl)c3)nn12 [Compound 392] | < 5.70 |
| CC(C)Oc1ccc(NCc2nnc3ccc(Nc4cccc(Cl)c4)nn23)cc1 [Compound 393] | < 5.70 |
| Clc1cccc(Nc2ccc3nnc(CCc4ccncc4)n3n2)c1 [Compound 394] | < 5.70 |
| Clc1cccc(Nc2ccc3nnc(CCc4c[nH]cn4)n3n2)c1 [Compound 395] | < 5.70 |
| CC(=O)Nc1ccc2nnc(Cc3ccc(O)cc3)n2n1 [Compound 396] | < 5.70 |
| O=C(Nc1ccc2nnc(Cc3ccc(O)cc3)n2n1)c1ccccc1 [Compound 397] | < 5.70 |
| O=C(Nc1ccc2nnc(Cc3ccc(O)cc3)n2n1)c1cccc(Cl)c1 [Compound 398] | < 5.70 |
| O=C(Nc1ccc2nnc(Cc3ccc(O)cc3)n2n1)C1CCCCC1 [Compound 399] | < 5.70 |
| Clc1cccc(Nc2ccc3nnc(C4(c5ccc6c(c5)OCO6)CC4)n3n2)c1 [Compound 400] | > 7.00 |
| CC(C)(C)Nc1ccc2nnc(Cc3ccc(O)cc3)n2n1 [Compound 401] | 5.70 to 7.00 |
| Fc1ccc(Cc2nnc3ccc(Nc4cccc(Cl)c4)nn23)cc1 [Compound 402] | > 7.00 |
| CS(=O)(=O)Nc1cccc(Cc2nnc3ccc(Nc4cccc(Cl)c4)nn23)c1 [Compound 403] | 5.70 to 7.00 |
| CN(C)S(=O)(=O)Nc1cccc(Cc2nnc3ccc(Nc4cccc(Cl)c4)nn23)c1 [Compound 404] | < 5.70 |
| Fc1ccc(SCc2nnc3ccc(Nc4cccc(Cl)c4)nn23)c(F)c1 [Compound 405] | < 5.70 |
| Oc1ccccc1SCc1nnc2ccc(Nc3cccc(Cl)c3)nn12 [Compound 406] | < 5.70 |
| O=[N+]([O-])c1ncccc1OCc1nnc2ccc(Nc3cccc(Cl)c3)nn12 [Compound 408] | < 5.70 |
| Oc1cccc(OCc2nnc3ccc(Nc4cccc(Cl)c4)nn23)c1 [Compound 409] | 5.70 to 7.00 |
| Oc1ccc(NCc2nnc3ccc(Nc4cccc(Cl)c4)nn23)cc1 [Compound 412] | 5.70 to 7.00 |
| Nc1ncccc1OCc1nnc2ccc(Nc3cccc(Cl)c3)nn12 [Compound 413] | > 7.00 |
| Clc1cccc(Nc2ccc3nnc(CNc4ncccn4)n3n2)c1 [Compound 414] | < 5.70 |
| Fc1ccc(C2(c3nnc4ccc(Nc5cccc(Cl)c5)nn34)CCCC2)cc1 [Compound 416] | < 5.70 |
| CN1C2CCC1CC(Nc1ccc3nnc(Cc4ccc(O)cc4)n3n1)C2 (stereo not drawn) [Compound 417] | < 5.70 |

| SMILES | pKi |
| --- | --- |
| Clc1cccc(Nc2ccc3nnc(Cn4ccc5ncccc54)n3n2)c1 [Compound 418] | > 7.00 |
| C[C@@H](c1ccc(O)cc1)c1nnc2ccc(NC3CCCCC3)nn12 [Compound 419] | > 7.00 |
| C[C@@H](c1ccc(O)cc1)c1nnc2ccc(NC3CC4CCC3C4)nn12 (stereo partly drawn) [Compound 420] | > 7.00 |
| CC(Cn1cnc2ccccc21)c1nnc2ccc(Nc3cccc(Cl)c3)nn12 (stereo not drawn) [Compound 421] | < 5.70 |
| Oc1ccc(Cc2nnc3ccc(N4CCc5ccccc5C4)nn23)cc1 [Compound 422] | 5.70 to 7.00 |
| Clc1cccc(Nc2ccc3nnc(COc4ccc5cccnc5c4)n3n2)c1 [Compound 423] | > 7.00 |
| Oc1ccc(Cc2nnc3ccc(Nc4ccc(F)c(Cl)c4)nn23)cc1 [Compound 424] | > 7.00 |
| COc1ccc(Cc2nnc3ccc(Nc4ccc(F)c(Cl)c4)nn23)cc1 [Compound 425] | > 7.00 |
| C[C@@H](c1ccc(O)cc1)c1nnc2ccc(Nc3ccc(F)c(Cl)c3)nn12 [Compound 426] | > 7.00 |
| Fc1ccc(Nc2ccc3nnc(C4(c5ccc6c(c5)OCO6)CC4)n3n2)cc1Cl [Compound 427] | 5.70 to 7.00 |
| O=c1[nH]ccc2c1ccn2Cc1nnc2ccc(Nc3cccc(Cl)c3)nn12 [Compound 428] | > 7.00 |
| Nc1cc(C(F)(F)F)ccc1OCc1nnc2ccc(Nc3cccc(Cl)c3)nn12 [Compound 429] | < 5.70 |
| N#Cc1ccc(OCc2nnc3ccc(Nc4cccc(Cl)c4)nn23)c(N)c1 [Compound 430] | < 5.70 |
| Cc1nc2cc(OCc3nnc4ccc(Nc5cccc(Cl)c5)nn34)ccc2s1 [Compound 431] | < 5.70 |
| Nc1cc(F)ccc1OCc1nnc2ccc(Nc3cccc(Cl)c3)nn12 [Compound 432] | < 5.70 |
| COC(=O)c1ccc(OCc2nnc3ccc(Nc4cccc(Cl)c4)nn23)c(N)c1 [Compound 433] | > 7.00 |
| COc1ccc(OCc2nnc3ccc(Nc4cccc(Cl)c4)nn23)c(N)c1 [Compound 434] | 5.70 to 7.00 |
| Oc1ccc2c(ccn2Cc2nnc3ccc(Nc4cccc(Cl)c4)nn23)c1 [Compound 435] | < 5.70 |
| COc1ccc(Cc2nnc3ccc(Nc4cccc(Cl)c4)nn23)cc1Br [Compound 437] | 5.70 to 7.00 |
| Clc1cccc(Nc2ccc3nnc(Cc4noc5ccccc45)n3n2)c1 [Compound 438] | < 5.70 |
| COc1cccc(Cc2nnc3ccc(Nc4cccc(Cl)c4)nn23)c1 [Compound 439] | 5.70 to 7.00 |
| COc1ccc(Cc2nnc3ccc(Nc4cccc(Cl)c4)nn23)c(Cl)c1 [Compound 440] | > 7.00 |

| SMILES | pKi |
| --- | --- |
| Oc1cccc(CCc2nnc3ccc(Nc4cccc(Cl)c4)nn23)c1 [Compound 441] | < 5.70 |
| COc1cc(Cc2nnc3ccc(Nc4cccc(Cl)c4)nn23)ccc1O [Compound 442] | > 7.00 |
| C[C@@H](c1ccc(O)cc1)c1nnc2ccc(Nc3cc(Cl)ccc3OCCN3CCCC3)nn12 [Compound 443] | 5.70 to 7.00 |
| CC(=O)N[C@@H]1CCCC[C@@H]1Nc1ccc2nnc([C@@H](C)c3ccc(O)cc3)n2n1 [Compound 444] | 5.70 to 7.00 |
| COCCC(=O)N[C@@H]1CCCC[C@@H]1Nc1ccc2nnc([C@@H](C)c3ccc(O)cc3)n2n1 [Compound 445] | < 5.70 |
| CC(=O)N[C@H]1CCCC[C@H]1Nc1ccc2nnc([C@@H](C)c3ccc(O)cc3)n2n1 [Compound 446] | 5.70 to 7.00 |
| COCCC(=O)N[C@H]1CCCC[C@H]1Nc1ccc2nnc([C@@H](C)c3ccc(O)cc3)n2n1 [Compound 447] | 5.70 to 7.00 |
| CC(=O)N[C@H]1CCCC[C@@H]1Nc1ccc2nnc([C@@H](C)c3ccc(O)cc3)n2n1 [Compound 448] | < 5.70 |
| COCCC(=O)N[C@H]1CCCC[C@@H]1Nc1ccc2nnc([C@@H](C)c3ccc(O)cc3)n2n1 [Compound 449] | < 5.70 |
| CC(=O)N[C@@H]1CCCC[C@H]1Nc1ccc2nnc([C@@H](C)c3ccc(O)cc3)n2n1 [Compound 450] | < 5.70 |
| COCCC(=O)N[C@@H]1CCCC[C@H]1Nc1ccc2nnc([C@@H](C)c3ccc(O)cc3)n2n1 [Compound 451] | < 5.70 |
| Nc1ncnc2c1ccn2Cc1nnc2ccc(Nc3cccc(Cl)c3)nn12 [Compound 452] | 5.70 to 7.00 |
| Fc1ccc(OCc2nnc3ccc(Nc4cccc(Cl)c4)nn23)cn1 [Compound 453] | 5.70 to 7.00 |
| Oc1cccc2ccc(NCc3nnc4ccc(Nc5cccc(Cl)c5)nn34)nc12 [Compound 454] | < 5.70 |
| NC(=O)c1ccc(NCc2nnc3ccc(Nc4cccc(Cl)c4)nn23)nc1 [Compound 455] | < 5.70 |
| Nc1ccc(Cc2nnc3ccc(Nc4cccc(Cl)c4)nn23)cc1 [Compound 456] | < 5.70 |
| CN(C)c1ccc(Cc2nnc3ccc(Nc4cccc(Cl)c4)nn23)cc1 [Compound 457] | < 5.70 |
| Oc1ccc2[nH]cc(Cc3nnc4ccc(Nc5cccc(Cl)c5)nn34)c2c1 [Compound 458] | < 5.70 |
| Fc1ccc2[nH]cc(Cc3nnc4ccc(Nc5cccc(Cl)c5)nn34)c2c1 [Compound 459] | < 5.70 |
| Clc1cccc(Nc2ccc3nnc(Cc4c[nH]c5ccccc45)n3n2)c1 [Compound 460] | < 5.70 |
| O=C(O)c1cn(Cc2nnc3ccc(Nc4cccc(Cl)c4)nn23)c2ccccc12 [Compound 461] | < 5.70 |
